# Experimental data from PubChem BioAssay AID1205 (EPA DSSTox, 2008).
# Active and inactive are the calls of the source.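 Rule for the calls: active = tumour findings in long-term animal cancer tests in more than one sex, species or organ; inactive = no tumour finding and more than one negative test.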 Where a SMILES comes first, the peptide text is derived from it.
# Experiment: DSSTox (CPDBAS) Carcinogenic Potency Database Summary MultiCellCall Results
# Conditions: animal carcinogenicity bioassays, multi-cell call summary
# Procedure, shortened: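 ActivityScore sums 50 for multispecies, 30 for multisex and 20 for multisite positivity. Based on the most positive experiment per sex-species across standardised chronic rodent and other animal cancer tests.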
row,Compound,outcome
1,Cc1c(N(C)CS(=O)(=O)O)c(=O)n(-c2ccccc2)n1C,active; multisex active
2,O.O.O.O.O.O.O.O=S(=O)([O-])[O-].[Co+2],active; multisite active; multisex active; multispecies active
3,Nc1ccc(N=Nc2ccccc2)c(N)n1,active; multisite active; multisex active; multispecies active
4,CC(C)COC(=O)c1ccc(O)cc1,inactive; multisex inactive
5,Cc1[nH]cnc1CSCCN=C(NC#N)N(C)N=O,inactive; multisex inactive; multispecies inactive
6,CC(C)(Oc1ccc(C2CC2(Cl)Cl)cc1)C(=O)O (centres undefined),active; multisite active; multisex active; multispecies active
7,OC[C@@H](O)[C@H]1O[C@@H]2O[C@H](C(Cl)(Cl)Cl)O[C@@H]2[C@H]1O,inactive; multisex inactive
8,C=C(C)[C@H]1Cc2c(ccc3c2O[C@@H]2COc4cc(OC)c(OC)cc4[C@@H]2C3=O)O1,inactive; multisex inactive; multispecies inactive
9,COS(C)(=O)=O,active; multisite active
10,CC(/C=C/C=C(\C)C(=O)O[C@@H]1O[C@H](CO[C@@H]2O[C@H](CO)[C@@H](O)[C@H](O)[C@H]2O)[C@@H](O)[C@H](O)[C@H]1O)=C\C=C\C=C(C)\C=C\C=C(/C)C(=O)O[C@@H]1O[C@H](CO[C@@H]2O[C@H](CO)[C@@H](O)[C@H](O)[C@H]2O)[C@@H](O)[C@H](O)[C@H]1O,inactive; multisex inactive
11,CC(=O)OC/C=C(C)/C=C/C=C(C)/C=C/C1=C(C)CCCC1(C)C,active; multisex active
12,CC1=C(/C=C/C(C)=C/C=C/C(C)=C/C(=O)O)C(C)(C)CCC1,inactive; multisex inactive; multispecies inactive
13,CN(C)CCN(Cc1ccsc1)c1ccccn1,inactive; multisex inactive
14,CNc1ncnc2c1ncn2[C@@H]1O[C@H](CO)[C@@H](O)[C@H]1O,inactive; multisex inactive
15,O=C(Nc1cccc2c(=O)cc(-c3nn[nH]n3)oc12)c1ccc(OCCCCc2ccccc2)cc1,inactive; multisex inactive
16,CN(C)CCC(c1ccc(Cl)cc1)c1ccccn1 (centres undefined),inactive; multisex inactive; multispecies inactive
17,CCCCOCCO,active; multisite active; multisex active
18,COC(=O)[C@H](Cc1ccccc1)NC(=O)[C@@H](N)CC(=O)O (H-Asp-Phe-OMe),inactive; multisex inactive
19,CC(=O)Nc1ccc(N=Nc2cc(C)ccc2O)cc1,active; multisex active; multispecies active
20,F[B-](F)(F)F,inactive; multisex inactive
21,Cn1cc(OCC(O)CNC(C)(C)C)c2ccccc2c1=O (centres undefined),inactive; multisex inactive; multispecies inactive
22,c1ccncc1,active; multisite active; multisex active; multispecies active
23,CN(C)C(=S)[S][Pb][S]C(=S)N(C)C,inactive; multisex inactive; multispecies inactive
24,C=CCNNCC=C,active; multisex active

row,Compound,outcome
1,C[C@]12CC[C@H](O)CC1=CC[C@@H]1[C@@H]2CC[C@]2(C)C(=O)CC[C@@H]12,active; multisex active
2,CCCNC(=O)NS(=O)(=O)c1ccc(Cl)cc1,inactive; multisex inactive; multispecies inactive
3,CN(C)C(=O)NC1CC2CC1C1CCCC21 (centres undefined),inactive; multisex inactive
4,Cn1nc(CO)nc1NCCCOc1cccc(CN2CCCCC2)c1,active; multisex active
5,Cc1ccc(Cc2cnc(NCCSCc3ccc(CN(C)C)o3)[nH]c2=O)cn1,active; multisex active
6,CN(C)Nc1nc(-c2ccc([N+](=O)[O-])o2)cs1,active; multisite active
7,C[C@@H]1O[C@@]2(CS1)CN1CCC2CC1,inactive; multisex inactive
8,Cc1ccc(S(=O)(=O)NC(=O)NN2CCCCCC2)cc1,inactive; multisex inactive; multispecies inactive
9,CN(CCCO)N=O,active; multisite active; multisex active
10,O=C(O)COc1ccc(Cl)cc1Cl,inactive; multisex inactive; multispecies inactive
11,CCCC[C@H](C)[C@@H](OC(=O)C[C@H](CC(=O)O)C(=O)O)[C@@H](C[C@H](C)C[C@@H](O)CCCC[C@@H](O)C[C@H](O)[C@H](C)N)OC(=O)C[C@H](CC(=O)O)C(=O)O,active; multisite active; multisex active; multispecies active
12,O=P(O)(O)O,inactive; multisex inactive
13,NC(=O)Cc1cccc2ccccc12,inactive; multisex inactive
14,CC(C)O,inactive; multisex inactive; multispecies inactive
15,CCc1ccc(C(c2ccc(CC)cc2)C(Cl)Cl)cc1,inactive; multisex inactive; multispecies inactive
16,[N-]=[N+]=O,inactive; multisex inactive
17,Oc1c(Cl)cc(Cl)c(Cl)c1Cc1c(O)c(Cl)cc(Cl)c1Cl,inactive; multisex inactive; multispecies inactive
18,CCCOC(=O)c1cc(O)c(O)c(O)c1,inactive; multisex inactive; multispecies inactive
19,CN(C)C=O,inactive; multisex inactive; multispecies inactive
20,Cc1ccc(S(=O)(=O)Oc2ccc(N=Nc3ccc(-c4ccc(N=Nc5c(O)ccc6cc(S(=O)(=O)O)cc(S(=O)(=O)O)c56)c(C)c4)cc3C)cc2)cc1,active; multisite active; multisex active
21,O=NN1CCCC1c1cccnc1 (centres undefined),active; multisite active; multisex active; multispecies active
22,OCc1ccccc1,inactive; multisex inactive; multispecies inactive
23,OCl,inactive; multisex inactive; multispecies inactive
24,O=C([O-])C(=O)O.O=C([O-])C(=O)O.[K+].[K+].[O]=[Ti],inactive; multisex inactive

row,Compound,outcome
1,CCOC(=O)N(CC)N=O,active; multisite active
2,CN(C)C(=O)Nc1cccc(C(F)(F)F)c1,inactive; multisex inactive; multispecies inactive
3,COc1ccc(C(=O)Nc2c(Cl)cncc2Cl)cc1OC1CCCC1,active; multisex active
4,C[N+](C)(C)CCO,inactive; multispecies inactive
5,CC(=O)NNC(=O)c1ccncc1,active; multisex active
6,CN(CCCC(O)c1cccnc1)N=O (centres undefined),active; multisite active
7,Cl,inactive; multisex inactive
8,CN1C2CC[C@@H]1CC(NC(=O)c1cc(Cl)cc3c1OC(C)(C)C3)C2 (some centres undefined),inactive; multisex inactive
9,CC1=CC(=O)CC(C)(C)C1,active; multisite active
10,O=C1C=CC(=O)C=C1,active; multisex active
11,ClC1=C(Cl)[C@@]2(Cl)[C@@H]3[C@@H](Cl)[C@H](Cl)C[C@@H]3C1(Cl)C2(Cl)Cl,active; multisex active
12,CCN(N)C=O,active; multisite active; multisex active
13,c1ccc(Nc2ccc(Nc3ccccc3)cc2)cc1,inactive; multisex inactive; multispecies inactive
14,CC(=O)C1C(=O)C=C(C)OC1=O (centres undefined),inactive; multisex inactive
15,C=C1C[C@@]23CC[C@H]4[C@@](C)(CCC[C@@]4(C)C(=O)O[C@@H]4O[C@H](CO)[C@@H](O)[C@H](O)[C@H]4O)[C@@H]2CC[C@]1(O[C@@H]1O[C@H](CO)[C@@H](O)[C@H](O)[C@H]1O[C@@H]1O[C@H](CO)[C@@H](O)[C@H](O)[C@H]1O)C3,inactive; multisex inactive
16,CC(=O)OC/C=C(\C)CCC=C(C)C,inactive; multisex inactive; multispecies inactive
17,NC(=O)N(CCO)N=O,active; multisite active; multisex active; multispecies active
18,CNCCc1ccc(OC(=O)C(C)C)c(OC(=O)C(C)C)c1,inactive; multisex inactive
19,C/C=C/c1ccc(OC)cc1,inactive; multisex inactive
20,CCCCN(N)C=O,active; multisite active; multisex active
21,C/C=C(\C)C(=O)O[C@@H]1CCN2CC=C(COC(=O)C(O)(C(C)C)C(C)O)[C@H]12 (some centres undefined),active; multisite active
22,CCOC(=O)C(O)(c1ccc(Cl)cc1)c1ccc(Cl)cc1,active; multisex active
23,N[C@@H](CS)C(=O)O,inactive; multisex inactive
24,COc1ccccc1N1CCN(CCCNc2cc(=O)n(C)c(=O)n2C)CC1,inactive; multisex inactive

row,Compound,outcome
1,ClC1=C(Cl)C2(Cl)C3C(Cl)C=CC3C1(Cl)C2(Cl)Cl (centres undefined),active; multisex active
2,O=c1ccc(=O)[nH][nH]1,inactive; multisex inactive; multispecies inactive
3,CCN(CC)C(=S)[S-].CCN(CC)C(=S)[S-].[Cd+2],inactive; multisex inactive
4,NC(=O)NC1NC(=O)NC1=O (centres undefined),inactive; multisex inactive
5,O=S(=O)(Oc1ccc(Cl)cc1Cl)c1ccccc1,inactive; multisex inactive
6,CC(C)(C)c1cc(C(C)(C)C)c(O)c(C(C)(C)C)c1,inactive; multisex inactive
7,FC(F)OC(Cl)C(F)(F)F (centres undefined),inactive; multisex inactive
8,O=NN1CCSCC1,active; multisite active; multisex active
9,Nc1ccc(Oc2ccc(N)cc2)cc1,active; multisite active; multisex active; multispecies active
10,CCOC(=O)C(C)(C)Oc1ccc(Cl)cc1,active; multisite active
11,O=C(O)Cc1cccc2ccccc12,inactive; multisex inactive
12,O=C1C(c2[nH]c3ccc(S(=O)(=O)O)cc3c2O)=Nc2ccc(S(=O)(=O)O)cc21,inactive; multisex inactive; multispecies inactive
13,O=S(=O)(O)c1cc(S(=O)(=O)O)c2c(N=Nc3ccccc3)c(O)ccc2c1,inactive; multisex inactive; multispecies inactive
14,FC(F)(F)C(Cl)Cl,active; multisite active; multisex active
15,O=CNNc1nc(-c2ccc([N+](=O)[O-])o2)cs1,active; multisite active; multisex active; multispecies active
16,NC(=O)c1ccccc1C(N)=O,inactive; multisex inactive; multispecies inactive
17,Nc1ccc(-c2ccccc2)cc1,active; multisite active; multisex active
18,COc1ccc(N)c(OC)c1,inactive; multisex inactive; multispecies inactive
19,O=[N+]([O-])c1ccc(Cl)cc1,active; multisite active; multisex active
20,O=NN1CCCCC1C(=O)O (centres undefined),inactive; multisex inactive
21,CN(C)NC(=O)CCC(=O)O,active; multisite active; multisex active; multispecies active
22,Nc1ccc(-c2ccc(N)c(Cl)c2)cc1Cl,active; multisite active; multisex active; multispecies active
